Molecules are shown by their SMILES.

Sequence of Mcl-1 protein (Q07820 whole entry): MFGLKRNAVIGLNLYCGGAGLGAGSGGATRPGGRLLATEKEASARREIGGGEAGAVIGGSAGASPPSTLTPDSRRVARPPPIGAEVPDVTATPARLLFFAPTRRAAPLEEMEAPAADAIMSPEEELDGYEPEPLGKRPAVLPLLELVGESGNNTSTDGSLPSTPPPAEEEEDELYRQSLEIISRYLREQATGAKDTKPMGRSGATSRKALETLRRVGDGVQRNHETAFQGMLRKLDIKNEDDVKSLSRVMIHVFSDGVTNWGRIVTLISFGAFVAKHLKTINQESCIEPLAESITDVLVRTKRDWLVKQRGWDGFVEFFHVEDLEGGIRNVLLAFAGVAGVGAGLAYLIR

The first assay addresses Mcl-1 protein (UniProtKB Q07820) (Homo sapiens (Human), UniProt Q07820). The assay is described as follows: Inhibition of Mcl-1 by the fluorescence polarisation assay (Example A, Method A). It is filed as binding. The following applies: fluorescence polarization assay. The essentials: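 Protein (5 nM) and fluorescein-tagged peptide tracer (1 nM) incubated with 11-point compound series for 2 h at room temperature in HEPES/NaCl/Tween 20 buffer, pH 7.4, 5% DMSO. Displacement read as decrease in polarisation; IC50 fitted by 4-parameter logistic, converted to Ki (cKi or eKi).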
For the molecule `O=C(O)[C@]1(Nc2cccc(Cl)c2)CC[C@]2(CC1)C(C1CC(OCc3ccccc3)C1)=Cc1ccccc12` (stereo partly shown) [Example 97, (1r,4r)-2′-[3-(benzyloxy)cyclobutyl]-4-(3-chloroanilino)spiro[cyclohexane-1,1′-indene]-4-carboxylic acid], the Ki was 578 nM.

A further assay deals with Cy5-labelled Mcl1 (amino acids 171-321) C286S protein (UniProtKB Q07820) (Homo sapiens (Human), UniProt Q07820, C286S). The assay is described as follows: Inhibition of Mcl-1 by the fluorescence quenching assay (Example A, Method B). It is filed as binding.
Sequence of Cy5-labelled Mcl1 (amino acids 171-321) C286S protein (Q07820 171-321 C286S): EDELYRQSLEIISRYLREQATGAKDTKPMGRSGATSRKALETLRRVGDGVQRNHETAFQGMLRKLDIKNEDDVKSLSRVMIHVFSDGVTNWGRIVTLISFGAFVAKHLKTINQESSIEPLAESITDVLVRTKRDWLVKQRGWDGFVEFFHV
Details: not given
The source says: Fluorescence quenching assay measures the change fluorescence intensity of C-terminally Cy5-labelled Mcl1 (amino acids 171-321) C286S protein (UniProtKB® primary accession number Q07820) having an amino acid sequence:
which is linked at the C-terminus to the amino acid X which corresponds to a cysteine labelled on the sulfur with sulpho-Cyanine5 from Lumiprobe GmbH catalogue number 13380, upon binding of a C-terminally labelled peptide derived from PUMA (UniProtKB® primary accession number Q9BXH1) having an amino acid sequence:
which is linked at the C-terminus to the amino acid X′, where X′ is cysteine labelled on the sulfur with TQ5WS from AAT Bioquest catalogue number 2079.
The addition of a compound which binds competitively to the same site as the peptide will result in an increase in the fluorescence intensity of the protein due to displacement of the fluorescence quencher.
An 11-point serial dilution of each compound was prepared in DMSO, the final buffer conditions were 10 mM 4-(2-hydroxyethyl)-1-piperazineethanesulfonic acid [HEPES], 150 mM NaCl, 0.05% Tween 20, pH 7.4 and 5% DMSO. The final protein concentration in the assay was 1 nM with the peptide present at 10, 20 or 400 nM. The experiments were incubated for 2 hours at room temperature before fluorescence intensity was measured on a Biotek SynergyNeo plate reader (Excitation 620 nm, emission 680 nm). The dose response curves were plotted with XL-Fit software using a 4-Parameter Logistic Model (Sigmoidal DoseResponse Model) and the inhibitory concentrations that gave a 50% increase in fluorescence intensity was determined (IC50). The Ki values were determined from the IC50 values according to Cer et al, Nucleic Acids Res, 2009, 37 (WebServer issue): W441-W445. Inhibition constants (Ki) are determined from complete binding inhibition curves (cKi) or from estimated from incomplete binding inhibition curves (eKi) in most cases due to low activity.
`O=C(O)[C@]1(Nc2cccc(Cl)c2)CC[C@@]2(CC1)c1ccccc1CC2CC(COc1ccnc2c1CCCC2)C(F)F` (single isomer, unassigned) [Example 512, (1r,4r)-4-(3-chloroanilino)-2′-(3,3-difluoro-2-{[(5,6,7,8-tetrahydroquinolin-4-yl)oxy]methyl}propyl)-2′,3′-dihydrospiro[cyclohexane-1,1′-indene]-4-carboxylic acid]: the Ki came to 22.7 nM.
In the case of `O=C(O)[C@]1(Nc2cccc(Cl)c2)CC[C@@]2(CC1)c1ccccc1CC2CC(COCCN1CCOCC1)COc1ccnc2c1CCC2` (mixture of isomers) [Example 496, (1r,4r)-4-(3-chloroanilino)-2′-(2-{[(6,7-dihydro-5H-cyclopenta[b]pyridin-4-yl)oxy]methyl}-3-[2-(morpholin-4-yl)ethoxy]propyl)-2′,3′-dihydrospiro[cyclohexane-1,1′-indene]-4-carboxylic acid], the Ki is 1.8 nM.
On to `CC[C@@H](COc1ccnc2ccsc12)C[C@H]1Cc2ccccc2[C@]12CC[C@@](Nc1cccc(Cl)c1)(C(=O)O)CC2` [Example 538, (1r,2′S,4S)-4-(3-chloroanilino)-2′-[(2R)-2-{[(thieno[3,2-b]pyridin-7-yl)oxy]methyl}butyl]-2′,3′-dihydrospiro[cyclohexane-1,1′-indene]-4-carboxylic acid], for which the inhibition constant Ki was 9.15 nM.
Still for that read-out and setting: next, `CC[C@H](COc1ccncc1)C[C@@H]1Cc2ccccc2[C@]12CC[C@@](Nc1cccc(Cl)c1)(C(=O)O)CC2` [Example 543, (1r,2′R,4R)-4-(3-chloroanilino)-2′-[(2S)-2-{[(pyridin-4-yl)oxy]methyl}butyl]-2′,3′-dihydrospiro[cyclohexane-1,1′-indene]-4-carboxylic acid]: 126 nM; `Cc1ccc2[nH]ccc2c1OCCC[C@H]1Cc2ccccc2[C@]12CC[C@@](Nc1cccc(Cl)c1)(C(=O)O)CC2` [Example 490, (1r,2′S,4S)-4-(3-chloroanilino)-2′-{3-[(5-methyl-1H-indol-4-yl)oxy]propyl}-2′,3′-dihydrospiro[cyclohexane-1,1′-indene]-4-carboxylic acid]: 61.8 nM.
Still for that read-out and setting: under `Cc1cnc2c(c1OC[C@H](C)C[C@H]1Cc3ccccc3[C@]13CC[C@@](Nc1cccc(Cl)c1)(C(=O)O)CC3)CCCC2` [Example 649, (1r,2′S,4S)-4-(3-chloroanilino)-2′-{(2R)-2-methyl-3-[(3-methyl-5,6,7,8-tetrahydroquinolin-4-yl)oxy]propyl}-2′,3′-dihydrospiro[cyclohexane-1,1′-indene]-4-carboxylic acid] stands 6.36 nM; under `CC(CC1Cc2ccccc2[C@]12CC[C@@](Nc1cccc(Cl)c1)(C(=O)O)CC2)C(C)Oc1ccnc2c1CCC2` (single isomer, unassigned) [Example 615, (1r,4r)-4-(3-chloroanilino)-2′-{3-[(6,7-dihydro-5H-cyclopenta[b]pyridin-4-yl)oxy]-2-methylbutyl}-2′,3′-dihydrospiro[cyclohexane-1,1′-indene]-4-carboxylic acid], 241 nM.
The same measure, in the same setting: next, `CC1CCN(C)c2nccc(OC[C@H](C)C[C@H]3Cc4ccccc4[C@]34CC[C@@](Nc3cccc(Cl)c3)(C(=O)O)CC4)c21` (single isomer, unassigned) [Example 644]: 2.8 nM.
As for `CC(CC1Cc2ccccc2[C@]12CC[C@@](Nc1cccc(Cl)c1)(C(=O)O)CC2)C(C)Oc1ccnc2c1CCC2` (single isomer, unassigned) [Example 614, (1r,4r)-4-(3-chloroanilino)-2′-{3-[(6,7-dihydro-5H-cyclopenta[b]pyridin-4-yl)oxy]-2-methylbutyl}-2′,3′-dihydrospiro[cyclohexane-1,1′-indene]-4-carboxylic acid], the Ki amounted to 123 nM.
Turning to `C[C@@H](COc1cccc2[nH]ccc12)CC1Cc2ccccc2[C@]12CC[C@@](Nc1cccc(Cl)c1)(C(=O)O)CC2` (stereo partly drawn) [Example 594, (1r,4R)-4-(3-chloroanilino)-2′-{(2R)-3-[(1H-indol-4-yl)oxy]-2-methylpropyl}-2′,3′-dihydrospiro[cyclohexane-1,1′-indene]-4-carboxylic acid], the Ki turned out to be 44.1 nM.
Still for that read-out and setting: under `C[C@@H](CNc1ccncc1)C[C@@H]1Cc2ccccc2[C@]12CC[C@@](Nc1cccc(Cl)c1)(C(=O)O)CC2` [Example 574, (1r,2′R,4R)-4-(3-chloroanilino)-2′-{(2R)-2-methyl-3-[(pyridin-4-yl)amino]propyl}-2′,3′-dihydrospiro[cyclohexane-1,1′-indene]-4-carboxylic acid] stands 221 nM.
With `Cc1cc(OCCC[C@@H]2Cc3ccccc3[C@]23CC[C@@](Nc2cccc(Cl)c2)(C(=O)O)CC3)c2cc[nH]c2c1` [Example 487, (1r,2′R,4R)-4-(3-chloroanilino)-2′-{3-[(6-methyl-1H-indol-4-yl)oxy]propyl}-2′,3′-dihydrospiro[cyclohexane-1,1′-indene]-4-carboxylic acid], the Ki is 72.9 nM.
For the molecule `C[C@H](C[C@H]1Cc2ccccc2[C@]12CC[C@@](Nc1cccc(Cl)c1)(C(=O)O)CC2)[C@@H](C)Oc1ccnc2c1CCC2` [Example 616, (1r,2′S,4S)-4-(3-chloroanilino)-2′-{(2R,3R)-3-[(6,7-dihydro-5H-cyclopenta[b]pyridin-4-yl)oxy]-2-methylbutyl}-2′,3′-dihydrospiro[cyclohexane-1,1′-indene]-4-carboxylic acid], the Ki worked out at 12.1 nM.

The assay is the same for the next values; noted with them: @ 1 μM, read-out: Mcl-1 inhibition, % at a single concentration.
In the case of `COC(=O)[C@]1(Nc2cccc(Cl)c2)CC[C@@]2(CC1)c1cc3c(cc1C[C@@H]2C[C@@H](C)COc1ccnc2c1[C@H](C)CCC2)OCO3` [Example 839, methyl (1r,4S,6′S)-4-(3-chloroanilino)-6′-[(2R)-2-methyl-3-{[(5R)-5-methyl-5,6,7,8-tetrahydroquinolin-4-yl]oxy}propyl]-6′,7′-dihydro-2′H-spiro[cyclohexane-1,5′-indeno[5,6-d][1,3]dioxole]-4-carboxylate], the inhibition at 1 µM is 11.1%.

Still in this assay, the particulars now being: Ki determined from IC50.
With `O=C(O)[C@]1(Nc2cccc(C(F)(F)F)c2)CC[C@]2(CC1)C(Br)=Cc1ccccc12` [Example 85, (1s,4s)-2′-bromo-4-[3-(trifluoromethyl)anilino]spiro[cyclohexane-1,1′-indene]-4-carboxylic acid], the inhibition constant (Ki) was determined as 424 nM.
The same measure, in the same setting: under `O=C(O)[C@]1(Nc2cccc(Cl)c2)CC[C@]2(CC1)C(CCc1ccccc1)=Cc1ccccc12` [Example 200, (1r,4r)-4-(3-chloroanilino)-2′-(2-phenylethyl)spiro[cyclohexane-1,1′-indene]-4-carboxylic acid] stands 139 nM.
Take `O=C(O)[C@]1(Nc2cccc(Cl)c2)CC[C@]2(CC1)C(CCOc1ccnc3ccsc13)=Cc1ccccc12` [Example 178, (1r,4r)-4-(3-chloroanilino)-2′-{2-[(thieno[3,2-b]pyridin-7-yl)oxy]ethyl}spiro[cyclohexane-1,1′-indene]-4-carboxylic acid]: the inhibitory constant (Ki) was found to be 37.1 nM.
As to `Cc1cccc(N[C@]2(C(=O)O)CC[C@@]3(CC2)C(Br)=Cc2ccccc23)c1` [Example 88, (1s,4s)-2′-bromo-4-(3-methylanilino)spiro[cyclohexane-1,1′-indene]-4-carboxylic acid], the Ki is 503 nM.
